Reference: US6048882A, “Prophylactic and therapeutic agent for hepatic diseases” (Nisshin Flour Milling Co., Ltd., priority 1995, dated 2000)
Structures can show the parent of a compound that is named as a salt. Where two headings read alike, the source gives them in different places.

System: experimental hepatopathy models prepared by D-galactosamine administration
Assay: Inhibitory action on hepatopathy in hepatopathy models by D-galactosamine (serum GPT and GOT)
Format: in vivo, Wistar strain male mice
Conditions: iv, 24 h, lipid emulsion, i.v., 2 hours after D-galactosamine; for inhibition in vivo at 0.01 mg/kg: dose 10 μg/kg; for inhibition in vivo at 0.03 mg/kg: dose 30 μg/kg
Protocol: In these tests, GPT (glutamic-pyruvic transaminase) and GOT (glutamic-oxaloacetic transaminase) were determined using kits for the determination of GPT and GOT upon the method by U. Lippi et al., Iatrozyme TA-Lq (available from Iatron Laboratories Inc.), wherein the NADH formed when enzymes act upon substrates can reduce nitrotetrazolium blue (NTB) via 1-methoxy-5-methylphenazinium methylsulfate (1-methoxy PMS) to form formazan, which is then subjected to colorimetric analysis at a wavelength of 560 nm.
Inhibitory action of lipid emulsions containing the present isoprenylamine derivatives was evaluated by inhibition rates of GPT and GOT in experimental hepatopathy models prepared by D-galactosamine administration.
The experimental hepatopathy model was prepared by intraperitoneal administration of D-galactosamine at 400 mg/kg to Wistar strain male […] weighing about 170 g. The present isoprenylamine derivative was formulated to a lipid emulsion according to the method described in Pharmaceutical Example 8, and was intravenously administered at a dose of 10-30 μg/kg 2 hours after the administration of D-galactosamine.
24 hours after the D-galactosamine administration, blood samples were collected form animals under ether anesthesia and centrifuged. Then, serum GPT and GOT were determined and the respective inhibition rates were calculated on the bases of the serum GPT and GOT values obtained when the present isoprenylamine derivatives were not administered being defined as 100, respectively.
For comparison, glycyrrhizin ammonium (Tokyo Kasei Co.) dissolved in distilled water was administered in a similar manner to that for the isoprenylamine derivatives, blood sampling and determination were conducted and the serum GPT and GOT inhibition rates were calculated.

Row | SMILES | inhibition in vivo at 0.01 mg/kg (read-out: GOT inhibition) [%] | inhibition in vivo at 0.01 mg/kg (read-out: GPT inhibition) [%] | inhibition in vivo at 0.03 mg/kg (read-out: GOT inhibition) [%] | inhibition in vivo at 0.03 mg/kg (read-out: GPT inhibition) [%]
1 | CC(C)=CCC/C(C)=C/CC/C(C)=C/CC/C(C)=C/CC/C(C)=C/CNCc1ccc2c(c1)OCO2 [Compound 2, N-farnesylgeranylpiperonylamine hydrochloride] | 23 | 23 | – | –
2 | CC(C)=CCC/C(C)=C/CC/C(C)=C/CC/C(C)=C/CC/C(C)=C/CC/C(C)=C/CNCc1ccc2c(c1)OCO2 [Compound 3, N-farnesylfarnesylpiperonylamine hydrochloride] | 21 | 20 | – | –
3 | CC(C)=CCC/C(C)=C/CC/C(C)=C/CC/C(C)=C/CC/C(C)=C/CC/C(C)=C/CC/C(C)=C/CC/C(C)=C/CNCc1ccc2c(c1)OCO2 [Compound 5, N-farnesylfarnesylgeranylpiperonylamine hydrochloride] | 29 | 27 | – | –
4 | CC(C)=CCC/C(C)=C/CC/C(C)=C/CC/C(C)=C/CC/C(C)=C/CC/C(C)=C/CC/C(C)=C/CC/C(C)=C/CC/C(C)=C/CNCc1ccc(Cl)cc1 [Compound 9, N-solanesyl-4-chlorobenzylamine hydrochloride] | – | – | 47 | 53
5 | CC(C)=CCC/C(C)=C/CC/C(C)=C/CC/C(C)=C/CC/C(C)=C/CC/C(C)=C/CC/C(C)=C/CC/C(C)=C/CC/C(C)=C/CNCc1ccc(C)cc1 [Compound 10, N-solanesyl-4-methylbenzylamine hydrochloride] | – | – | 54 | 63
6 | CC(C)=CCC/C(C)=C/CC/C(C)=C/CC/C(C)=C/CC/C(C)=C/CC/C(C)=C/CC/C(C)=C/CC/C(C)=C/CC/C(C)=C/CNCc1ccc(O)c(O)c1 [Compound 11, N-solanesyl-3,4-dihydroxybenzylamine hydrochloride] | – | – | 41 | 55
7 | COc1cc(CNC/C=C(\C)CC/C=C(\C)CC/C=C(\C)CC/C=C(\C)CC/C=C(\C)CC/C=C(\C)CC/C=C(\C)CC/C=C(\C)CCC=C(C)C)ccc1O [Compound 12, N-solanesyl-4-hydroxy-3-methoxybenzylamine hydrochloride] | – | – | 42 | 53
8 | COc1c(C)c(CNC/C=C(\C)CC/C=C(\C)CC/C=C(\C)CC/C=C(\C)CC/C=C(\C)CC/C=C(\C)CC/C=C(\C)CC/C=C(\C)CCC=C(C)C)c(OC)c(OC)c1OC [Compound 14, N-solanesyl-2,3,4,5-tetramethoxy-6-methylbenzylamine hydrochloride] | – | – | 55 | 64
9 | CC(C)=CCC/C(C)=C/CC/C(C)=C/CC/C(C)=C/CC/C(C)=C/CC/C(C)=C/CC/C(C)=C/CC/C(C)=C/CC/C(C)=C/CNc1ccc2c(c1)OCO2 [Compound 16, N-solanesyl-(3,4-methylenedioxy)aniline hydrochloride] | – | – | 48 | 43
10 | CC(C)=CCC/C(C)=C/CC/C(C)=C/CC/C(C)=C/CC/C(C)=C/CC/C(C)=C/CC/C(C)=C/CC/C(C)=C/CC/C(C)=C/CNCCc1ccc2c(c1)OCO2 [Compound 17, N-Solanesyl-2-(3,4-methylenedioxyphenyl)ethylamine Hydrochloride] | – | – | 24 | 23
11 | CC(C)=CCC/C(C)=C/CC/C(C)=C/CC/C(C)=C/CC/C(C)=C/CC/C(C)=C/CC/C(C)=C/CC/C(C)=C/CC/C(C)=C/CNCCCc1ccc2c(c1)OCO2 [Compound 18, N-solanesyl-3-(3,4-methylenedioxyphenyl)propylamine hydrochloride] | – | – | 22 | 20
12 | CC(C)=CCC/C(C)=C/CC/C(C)=C/CC/C(C)=C/CC/C(C)=C/CC/C(C)=C/CC/C(C)=C/CC/C(C)=C/CC/C(C)=C/CNCc1ccco1 [Compound 24, N-solanesyl-2-furfurylamine hydrochloride] | – | – | 30 | 25
